Data on three compounds can be found in US11034650B2, “Compounds useful for treating a Mannheimia haemolytica or Histophilus somni infection” (Intervet Inc., priority 2016, dated 2021).

In brackets after ≈: the same amount, converted by molar mass. Where only a bound is given, the exact number is not on record here.

The first assay relates to Mannheimia haemolytica MH 10720 (154, BRD field isolate). The assay can be described thus: MIC, broth-microdilution (CLSI VET01-A4), strain MH 10720. The assay is classed as cell-based. The conditions noted are these: Mannheimia haemolytica strain MH 10720, broth-microdilution; unit assumed. The method, boiled down: (§1)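 The compound was titrated in twofold steps in microdilution trays. Absence of turbidity, checked without instruments, marked the MIC at the lowest such concentration.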
The compound `CC(C)[C@H](NC(=O)c1ccc(C#Cc2ccc(CNCc3ccnc(Cl)c3)cc2)cc1)C(=O)NO` [Compound 168] gave an MIC MH 10720 of 0.2 µg/mL (≈ 0.407 µM).

In turn, `CON=C(C)[C@H](NC(=O)c1ccc(C#Cc2ccc(CNCc3ccc(OC)cc3)cc2)cc1)C(=O)NO` [Compound 383] had an MIC MH 10720 of 0.8 µg/mL (≈ 1.55 µM).

`CC(C)([C@H](NC(=O)c1ccc(C#Cc2ccc(CNCc3ccccc3)nc2)cc1)C(=O)NO)S(C)(=O)=O` [Compound 351] displayed an MIC MH 10720 of at most 0.1 µg/mL.

In a further assay the test system is Mannheimia haemolytica MH 13093 (XB0472-6014.1, BRD field isolate). The assay can be described thus: MIC, broth-microdilution (CLSI VET01-A4), strain MH 13093. The class given is cell-based. The conditions noted are these: Mannheimia haemolytica strain MH 13093, broth-microdilution; unit assumed. The method, boiled down: as §1
Regarding `CC(C)[C@H](NC(=O)c1ccc(C#Cc2ccc(CNCc3ccnc(Cl)c3)cc2)cc1)C(=O)NO` [Compound 168], the MIC MH 13093 is 0.8 µg/mL (≈ 1.63 µM).

Turning to `CON=C(C)[C@H](NC(=O)c1ccc(C#Cc2ccc(CNCc3ccc(OC)cc3)cc2)cc1)C(=O)NO` [Compound 383], the MIC MH 13093 was 1.6 µg/mL (≈ 3.11 µM).

As to `CC(C)([C@H](NC(=O)c1ccc(C#Cc2ccc(CNCc3ccccc3)nc2)cc1)C(=O)NO)S(C)(=O)=O` [Compound 351], the MIC MH 13093 was 0.8 µg/mL (≈ 1.5 µM).

The subject of another assay is Pasteurella multocida PM 10775 (080130003051, BRD field isolate). The assay can be described thus: MIC, broth-microdilution (CLSI VET01-A4), strain PM 10775. The assay is classed as cell-based. The settings on record: Pasteurella multocida strain PM 10775, broth-microdilution; unit assumed. The method, boiled down: as §1
`CC(C)[C@H](NC(=O)c1ccc(C#Cc2ccc(CNCc3ccnc(Cl)c3)cc2)cc1)C(=O)NO` [Compound 168] yielded an MIC PM 10775 of at most 0.1 µg/mL.

With `CON=C(C)[C@H](NC(=O)c1ccc(C#Cc2ccc(CNCc3ccc(OC)cc3)cc2)cc1)C(=O)NO` [Compound 383], the MIC PM 10775 turned out to be 0.8 µg/mL (≈ 1.55 µM).

For `CC(C)([C@H](NC(=O)c1ccc(C#Cc2ccc(CNCc3ccccc3)nc2)cc1)C(=O)NO)S(C)(=O)=O` [Compound 351], the MIC PM 10775 was at most 0.1 µg/mL.

The subject of another assay is Mannheimia haemolytica MH 6374 (ATCC 33396, reference strain). The assay can be described thus: MIC, broth-microdilution (CLSI VET01-A4), strain MH 6374. The class given is cell-based. The conditions noted are these: Mannheimia haemolytica strain MH 6374, broth-microdilution; unit assumed. The method, boiled down:
as §1
In turn, `CC(C)[C@H](NC(=O)c1ccc(C#Cc2ccc(CNCc3ccnc(Cl)c3)cc2)cc1)C(=O)NO` [Compound 168] returned an MIC MH 6374 of 0.8 µg/mL (≈ 1.63 µM).

The compound `CON=C(C)[C@H](NC(=O)c1ccc(C#Cc2ccc(CNCc3ccc(OC)cc3)cc2)cc1)C(=O)NO` [Compound 383] registered an MIC MH 6374 of 1.6 µg/mL (≈ 3.11 µM).

As to `CC(C)([C@H](NC(=O)c1ccc(C#Cc2ccc(CNCc3ccccc3)nc2)cc1)C(=O)NO)S(C)(=O)=O` [Compound 351], the MIC MH 6374 was found to be 0.4 µg/mL (≈ 0.748 µM).

Another assay deals with Mannheimia haemolytica MH 6357 (M7/2, reference strain, cattle infection strain). Kind of assay: MIC, broth-microdilution (CLSI VET01-A4), strain MH 6357. The assay is classed as cell-based. The settings on record: Mannheimia haemolytica strain MH 6357, broth-microdilution; unit assumed. The method, boiled down:
as §1
Compound `CC(C)[C@H](NC(=O)c1ccc(C#Cc2ccc(CNCc3ccnc(Cl)c3)cc2)cc1)C(=O)NO` [Compound 168] showed an MIC MH 6357 of 0.4 µg/mL (≈ 0.815 µM).

For the compound `CON=C(C)[C@H](NC(=O)c1ccc(C#Cc2ccc(CNCc3ccc(OC)cc3)cc2)cc1)C(=O)NO` [Compound 383], the MIC MH 6357 was 0.8 µg/mL (≈ 1.55 µM).

Regarding `CC(C)([C@H](NC(=O)c1ccc(C#Cc2ccc(CNCc3ccccc3)nc2)cc1)C(=O)NO)S(C)(=O)=O` [Compound 351], the MIC MH 6357 stood at 0.4 µg/mL (≈ 0.748 µM).

A further assay relates to Pasteurella multocida PM 6267 (P 2225 (L386), reference strain, mouse infection strain). The assay can be described thus: MIC, broth-microdilution (CLSI VET01-A4), strain PM 6267. The assay is classed as cell-based. The conditions noted are these: Pasteurella multocida strain PM 6267, broth-microdilution; unit assumed. The method, boiled down:
as §1
As to `CC(C)[C@H](NC(=O)c1ccc(C#Cc2ccc(CNCc3ccnc(Cl)c3)cc2)cc1)C(=O)NO` [Compound 168], the MIC PM 6267 is at most 0.1 µg/mL.

The compound `CON=C(C)[C@H](NC(=O)c1ccc(C#Cc2ccc(CNCc3ccc(OC)cc3)cc2)cc1)C(=O)NO` [Compound 383] showed an MIC PM 6267 of 6.3 µg/mL (≈ 12.2 µM).

The compound `CC(C)([C@H](NC(=O)c1ccc(C#Cc2ccc(CNCc3ccccc3)nc2)cc1)C(=O)NO)S(C)(=O)=O` [Compound 351] had an MIC PM 6267 of 0.4 µg/mL (≈ 0.748 µM).

The subject of a further assay is Mannheimia haemolytica MH 13065 (XB0446-6003.9, BRD field isolate). The assay can be described thus: MIC, broth-microdilution (CLSI VET01-A4), strain MH 13065. The class given is cell-based. The settings on record: Mannheimia haemolytica strain MH 13065, broth-microdilution; unit assumed. The method, boiled down: as §1
Compound `CC(C)[C@H](NC(=O)c1ccc(C#Cc2ccc(CNCc3ccnc(Cl)c3)cc2)cc1)C(=O)NO` [Compound 168] gave an MIC MH 13065 of 0.8 µg/mL (≈ 1.63 µM).

`CON=C(C)[C@H](NC(=O)c1ccc(C#Cc2ccc(CNCc3ccc(OC)cc3)cc2)cc1)C(=O)NO` [Compound 383]: the MIC MH 13065 is 1.6 µg/mL (≈ 3.11 µM).

Turning to `CC(C)([C@H](NC(=O)c1ccc(C#Cc2ccc(CNCc3ccccc3)nc2)cc1)C(=O)NO)S(C)(=O)=O` [Compound 351], the MIC MH 13065 was determined as 1.6 µg/mL (≈ 2.99 µM).

The next assay relates to Pasteurella multocida PM 6391 (ATCC 43137, reference strain). Kind of assay: MIC, broth-microdilution (CLSI VET01-A4), strain PM 6391. The settings on record: Pasteurella multocida strain PM 6391, broth-microdilution; unit assumed. The class given is cell-based. The method, boiled down: as §1
With `CC(C)[C@H](NC(=O)c1ccc(C#Cc2ccc(CNCc3ccnc(Cl)c3)cc2)cc1)C(=O)NO` [Compound 168], the MIC PM 6391 turned out to be 0.4 µg/mL (≈ 0.815 µM).

`CON=C(C)[C@H](NC(=O)c1ccc(C#Cc2ccc(CNCc3ccc(OC)cc3)cc2)cc1)C(=O)NO` [Compound 383] came in with an MIC PM 6391 of at most 0.1 µg/mL.

`CC(C)([C@H](NC(=O)c1ccc(C#Cc2ccc(CNCc3ccccc3)nc2)cc1)C(=O)NO)S(C)(=O)=O` [Compound 351] displayed an MIC PM 6391 of 0.4 µg/mL (≈ 0.748 µM).

In another assay the test system is Pasteurella multocida PM 12080 (IV102277-0093, BRD field isolate). The assay can be described thus: MIC, broth-microdilution (CLSI VET01-A4), strain PM 12080. The assay is classed as cell-based. The conditions noted are these: Pasteurella multocida strain PM 12080, broth-microdilution; unit assumed. In a few lines: as §1
The compound `CC(C)[C@H](NC(=O)c1ccc(C#Cc2ccc(CNCc3ccnc(Cl)c3)cc2)cc1)C(=O)NO` [Compound 168] displayed an MIC PM 12080 of 0.2 µg/mL (≈ 0.407 µM).

As for `CON=C(C)[C@H](NC(=O)c1ccc(C#Cc2ccc(CNCc3ccc(OC)cc3)cc2)cc1)C(=O)NO` [Compound 383], the MIC PM 12080 was 0.4 µg/mL (≈ 0.777 µM).

Take `CC(C)([C@H](NC(=O)c1ccc(C#Cc2ccc(CNCc3ccccc3)nc2)cc1)C(=O)NO)S(C)(=O)=O` [Compound 351]: the MIC PM 12080 is at most 0.1 µg/mL.

In another assay the test system is Mannheimia haemolytica MH 12587 (1071, BRD field isolate, macrolide-resistance: erm+, E+). The assay can be described thus: MIC, broth-microdilution (CLSI VET01-A4), strain MH 12587. The class given is cell-based. The settings on record: Mannheimia haemolytica strain MH 12587, broth-microdilution; unit assumed. In a few lines: as §1
Compound `CC(C)[C@H](NC(=O)c1ccc(C#Cc2ccc(CNCc3ccnc(Cl)c3)cc2)cc1)C(=O)NO` [Compound 168] yielded an MIC MH 12587 of 1.6 µg/mL (≈ 3.26 µM).

On to `CON=C(C)[C@H](NC(=O)c1ccc(C#Cc2ccc(CNCc3ccc(OC)cc3)cc2)cc1)C(=O)NO` [Compound 383], for which the MIC MH 12587 was 0.4 µg/mL (≈ 0.777 µM).

In turn, `CC(C)([C@H](NC(=O)c1ccc(C#Cc2ccc(CNCc3ccccc3)nc2)cc1)C(=O)NO)S(C)(=O)=O` [Compound 351] showed an MIC MH 12587 of 1.6 µg/mL (≈ 2.99 µM).
